Measurements reported in PMC5785958, “New role of phenothiazine derivatives as peripherally acting CB1 receptor antagonizing anti-obesity agents” (Scientific Reports, 2018).

Assays:
[1] = parameters: method as in PMID 20664173; conditions: cited from earlier work
[2] = PAMPA-BBB in vitro permeability assay; type: in vitro ADME, porcine; parameters: key to Prediction (penetration in CNS): CNS- indicates low passive CNS permeation; conditions: for Prediction (penetration in CNS): from PAMPA-BBB Pe, Pe less than 3.8 × 10^−6 cm s^−1 = low BBB permeation; for Papp at 120 min, 100 µg/ml: pig, PAMPA-BBB, porcine brain lipid, PBS/ethanol (70:30), 25 °C, mean ± SEM of three experiments, read-out: Pe
Description: As discussed above, BBB permeation of the available CB1 receptor antagonists limits their therapeutic utility. A successful CB1 receptor antagonist to be used as anti-obesity agent must be devoid of BBB permeability. […] In this study, the ability of the test compounds to cross the BBB was determined by the well established in vitro model PAMPA-BBB assay. This simple and rapid model has the advantage to predict passive BBB permeation with high accuracy[57],[58]. The in vitro permeability (Pe) of the test compounds through the lipid extract of porcine brain was determined in PBS/ethanol (70:30).
To assess the in vivo brain permeability potential of the test compounds, PAMPA assay for BBB was performed as reported by Di. et al.[57]. The donor microplate (polyvinylidene fluoride (PVDF) membrane, diameter 25 mm, pore size 0.45 µm Millipore) and the acceptor microplate were used for the experiment. The acceptor microplate was filled with 200 µl phosphate buffer saline (PBS) and ethanol in the ratio of 70:30 whereas the donor microplate filter surface was impregnated with porcine brain lipid (Avanti Polar Lipids) in dodecane (Sigma) (4 µl of 20 mg/ml). 200 µl of the test compound (100 µg/ml in PBS/ethanol) was added to the donor well. A sandwich was formed by placing the donor plate carefully on the acceptor plate, and the plates were kept undisturbed for 120 min at 25 °C. The donor plate was carefully detached after the incubation period and concentration of the test compound in the acceptor wells was determined using UV spectroscopy. Each sample was analyzed in four wells at five different wavelengths, and at least in three independent runs. Assay validation was performed by using nine commercial quality standard drugs of known BBB permeability[75] in which the reported permeability values of the standards were compared with their experimental permeability values, which gave a linear relationship, Pe(exp.) = 1.171Pe(bibl.) + 1.489 (R^2 = 0.983)[57],[58].

Wistar rats = assay: Acute hypophagic response in 24 h food-deprived rats; type: in vivo, rat; conditions: for effect on food intake (in words): 2 h; for food intake (control = 100%): 10 mg/kg
Description: As a preliminary screening, the synthesized compounds were evaluated for acute hypophagia in rats and the results are summarized in Fig. 5. Twenty four hour food deprived Wistar rats were given weighed amounts of food pellets after administration of the test compounds. Quantum of food consumed by the control group of animals was considered as 100%.
Male Wistar rats weighing 200–250 g were used in the present study to assess the acute hypophagic response. Animals were housed individually in a plexi-glass cage in a temperature and humidity controlled room with a 12 h light/dark cycle. Standard chow pellets and water were made available ad libitum. Animals were handled daily for a week before performing the actual experiments. The animal study protocol was approved by the Institutional Animal Ethics Committee (IAEC) of Faculty of Pharmacy, The Maharaja Sayajirao University of Baroda (Approval no. MSU/IAEC/2014-15/1401). The experiments were conducted in accordance to the guidelines of CPCSEA (Committee for the Purpose of Control and Supervision of Experiments on Animals), Ministry of Environment & Forests, Govt. of India. We tried our best to reduce the number of animals and their suffering.
The acute effect of the synthesized test compounds on feeding behavior was assessed in 24 h food-deprived animals. Before performing the experiments, the bedding material was removed from the cage. The animals were deprived of feed for 24 h with free access to water. The fasted animals were administered with the test compounds (10 mg/kg, p.o.). After 30 min of administration, weighed amounts of food pellets were served to the animals. Amount of food pellets and food spillage remaining after 2 h were weighed to find out the amount of food consumed by the animals.

CB1 receptor = molecular target: T1, CB1 receptor (Rattus norvegicus, UniProt P20272); assay: In vivo CB1 receptor antagonistic activity against WIN-55212-2 hyperphagia; conditions: 24 h fasted rats, test compound 10 mg/kg p.o., WIN-55212-2 2 mg/kg i.p.
T1 construct: from tissue; host or cells: whole living animal (male Wistar rat); receptor endogenous in central and peripheral tissues
Description: Here also, the quantity of feed consumed by the control group animals was taken as 100%.
In another set of experiments, in vivo CB1 receptor antagonistic activity of the test compounds was assessed.

CB1R = tested on: CB1R; parameters: method as in PMID 20652930; conditions: read-out: CB1R antagonist activity EC50; cited from earlier work
[3] = 24 h fasted male Wistar rats, 10 mg/kg p.o.
[4] = 24 h fasted male Wistar rats, 10 mg/kg p.o., food served after 30 min, intake over 2 h

T1 sequence (P20272 whole entry): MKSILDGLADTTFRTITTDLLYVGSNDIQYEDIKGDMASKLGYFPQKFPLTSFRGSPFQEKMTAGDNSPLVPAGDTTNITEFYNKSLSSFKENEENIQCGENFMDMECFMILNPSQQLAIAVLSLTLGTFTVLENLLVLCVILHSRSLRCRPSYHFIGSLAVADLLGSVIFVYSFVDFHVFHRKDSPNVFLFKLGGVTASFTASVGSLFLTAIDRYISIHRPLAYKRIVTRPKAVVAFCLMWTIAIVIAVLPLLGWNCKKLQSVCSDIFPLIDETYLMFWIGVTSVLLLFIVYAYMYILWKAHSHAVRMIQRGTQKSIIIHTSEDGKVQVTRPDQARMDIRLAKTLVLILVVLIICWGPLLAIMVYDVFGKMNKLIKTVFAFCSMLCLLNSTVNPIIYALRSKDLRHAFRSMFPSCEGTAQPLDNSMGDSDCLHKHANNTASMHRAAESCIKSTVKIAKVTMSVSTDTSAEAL

Row | Prediction (penetration in CNS) [2] | Papp at 120 min, 100 µg/ml [2] [×10⁻⁶ cm/s] | melting point [°C] | SMILES | brain penetration (in words) [1] | effect on food intake (in words) (Wistar rats; [3]) | food intake (control = 100%) (Wistar rats; [4]) | food intake (control = 100%) (Wistar rats; po) [%] | effect on hyperphagic effect of WIN-55212-2 (in words) (CB1 receptor) | EC50 (CB1R) [nM]
1 | CNS- | 3.08 ± 0.16 | 215 to 217 | COc1ccc2c(c1)N(C(=O)CSc1ncc(C#N)c(N)n1)c1ccccc1S2 [Compound 23, 4-Amino-2-(2-(2-methoxy-10H-phenothiazin-10-yl)-2-oxoethylthio)pyrimidine-5-carbonitrile] | – | significant hypophagic activity | 19–43% | 19 | suppressed the hyperphagic effect of WIN-55212-2 | –
2 | CNS- | 2.8 ± 0.58 | 104 to 106 | CCOC(=O)c1cnc(SCC(=O)N2c3ccccc3Sc3ccc(OC)cc32)nc1N [Compound 27, Ethyl 4-amino-2-(2-(2-methoxy-10H-phenothiazin-10-yl)-2-oxoethylthio)pyrimidine-5-carboxylate] | – | significant hypophagic activity | 19–43% | 19 | suppressed the hyperphagic effect of WIN-55212-2 | –

More lines, now with the values behind:

Row | SMILES | Prediction (penetration in CNS) [2] | Papp at 120 min, 100 µg/ml [2] [×10⁻⁶ cm/s] | melting point [°C] | brain penetration (in words) [1] | effect on food intake (in words) (Wistar rats; [3]) | food intake (control = 100%) (Wistar rats; [4]) | food intake (control = 100%) (Wistar rats; po) [%] | effect on hyperphagic effect of WIN-55212-2 (in words) (CB1 receptor) | EC50 (CB1R) [nM]
3 | Cc1c(C(=O)NN2CCS(=O)(=O)CC2)nn(-c2ccc(Cl)cc2Cl)c1-c1ccc(C#CCCC#N)cc1 [AM-6545] | – | – | – | limited brain penetration | – | – | – | – | –
4 | CCOC(=O)c1cnc(SCC(=O)N2c3ccccc3Sc3ccc(C(F)(F)F)cc32)nc1N [Compound 25, Ethyl 4-amino-2-(2-(2-trifluoromethyl-10H-phenothiazin-10-yl)-2-oxoethylthio)-pyrimidine-5-carboxylate] | CNS- | 2.72 ± 0.19 | 148 to 151 | – | significant hypophagic activity | 19–43% | 37 | suppressed the hyperphagic effect of WIN-55212-2 | –
5 | Nn1c(SCC(=O)N2c3ccccc3Sc3ccc(Cl)cc32)nnc1-c1ccncc1 [Compound 34, 2-(4-Amino-5-(4-pyridyl)-4H-1,2,4-triazol-3-ylthio)-1-(2-chloro-10H-phenothiazin-10-yl)ethanone] | CNS- | 2.09 ± 0.82 | 225 to 227 | – | significant hypophagic activity | – | – | suppressed the hyperphagic effect of WIN-55212-2 | –
6 | CCc1c(C(=O)NN2CCCCC2)nn(-c2ccc(Cl)cc2Cl)c1-c1ccc(C#Cc2ccc(C(F)(F)F)cc2)s1 [TM38837] | – | – | – | – | – | – | – | – | 8.5
